Measurements taken from article PMC8196580, “Identification of Kaurane-Type Diterpenes as Inhibitors of Leishmania Pteridine Reductase I” (Molecules, 2021).
Where two headings read alike, the source gives them in different places.

Key:
L. major [1] = test system: L. major; design: method as in ChEMBL; settings: ref ChEMBL, cited from earlier work
L. major [2] = test: ChEMBL dataset of pIC50 values against L. major used for the RF model (Table S1); format: cell-based, Leishmania major; further: call rule not given here
[3] = ChemBL structures with pIC50 values used for Random forest model construction, L. major
[4] = Active/Inactive class assigned to the ChEMBL pIC50 value for Random forest model construction, ref ChEMBL
[5] = ChemBL structures with pIC50 values used for Random forest model construction (Table S1)
[6] = Active/Inactive class assigned to ChemBL structures for Random forest model construction (Table S1)

| SMILES | pIC50 Value (L. major [1]; [3]) | Outcome (L. major [2]; [4]) | pIC50 Value (L. major [1]; [5]) | Outcome (L. major [2]; [6]) |
| --- | --- | --- | --- | --- |
| O=C(CCl)N1c2ccccc2Oc2ccc(Cl)cc21 [CHEMBL3758242] | 5.12 | Active |  |  |
| COc1ccccc1-c1nnc(-c2ccc(C(=O)N/N=C/c3ccc([N+](=O)[O-])cc3)cc2)o1 [CHEMBL4067171] | 4.25 | Inactive |  |  |
| COc1ccccc1C(=O)N/N=C/c1ccc(O)c(O)c1 [CHEMBL2382034] |  |  | 5.48 | Active |
| Cc1ccc2cc(C3CC(c4sccc4C)=NN3)c(Cl)nc2c1 (stereo not shown) [CHEMBL2236136] |  |  | 5.65 | Active |
| CC1=C(C(=O)/C=C/c2ccc(Cl)cc2)C(c2ccccc2)NC(=O)N1C (stereo not shown) [CHEMBL3785670] |  |  | 5.77 | Active |
| COc1ccc(C(=O)/C=C/c2ccc(-n3ccnc3)cc2)cc1 [CHEMBL570461] |  |  | 5.49 | Active |
| CCCN(CCC)c1ccc(Nc2c3ccccc3nc3ccccc23)cc1 [CHEMBL88980] |  |  | 6.70 | Active |
| CN1CCN(c2ccnc3cc(Cl)ccc23)CC1 [CHEMBL1255667] | 4.00 | Inactive |  |  |
| Cc1ccc2cc(/C=C/C(=O)c3cc(C)sc3C)c(Cl)nc2c1 [CHEMBL1940854] |  |  | 5.74 | Active |
| CCCCN1CN(CC(=O)OCC)CSC1=S [CHEMBL4294357] | 4.44 | Inactive |  |  |
| CC(C)(O)[C@@H]1CC[C@](C)([C@@H]2[C@@H](O)C[C@@]3(C)[C@@H]4C[C@H](O)[C@H]5C(C)(C)[C@@H](O)CC[C@@]56C[C@@]46CC[C@]23C)O1 [CHEMBL504655] | 3.97 | Inactive |  |  |
| C=CCCC/C=C\C/C=C\CCCCCCCc1cc(O)cc(O)c1 [CHEMBL496449] | 4.98 | Inactive |  |  |
| CCCCCCN(CCCCCC)c1ccc(Nc2c3ccccc3nc3ccccc23)cc1 [CHEMBL88123] |  |  | 6.62 | Active |
| COc1cccc2c1C(=O)C=C(C)C2=O [CHEMBL1531003] |  |  | 5.48 | Active |
| CCN(CC)CCCNc1ccc(Nc2c3ccccc3nc3ccccc23)cc1 [CHEMBL89458] |  |  | 6.70 | Active |
| NP(=O)(OCc1ccccc1[N+](=O)[O-])N(CCCl)CCCl (stereo not shown) [CHEMBL1256928] | 4.52 | Inactive |  |  |
| CCn1nc(C)cc1-c1nnc2sc(-c3ccc(C)cc3)nn12 [CHEMBL1256826] | 4.05 | Inactive |  |  |
| CCCCCN(CCCCC)c1ccc(Nc2c3ccccc3nc3ccccc23)cc1 [CHEMBL89031] |  |  | 6.80 | Active |
| O=C(CCl)N1c2ccccc2COc2ccc(Cl)cc21 [CHEMBL3758404] | 5.14 | Active |  |  |
| CCOC(=O)c1ccc(-c2c(-c3ccccc3)nc3ccccn23)cc1 [CHEMBL2151866] | 5.28 | Active |  |  |
| COc1cccc2c(-c3ccc(O)c4c3CC(C)(C)N=C4)ccc(O)c12 [CHEMBL1277993] | 4.00 | Inactive |  |  |
| CC1=C2C(=O)c3c(O)ccc(O)c3CC2(C)CCC1=O (stereo not shown) [CHEMBL255104] | 3.52 | Inactive |  |  |

| SMILES | pIC50 Value (L. major [1]; [3]) | Outcome (L. major [2]; [4]) | pIC50 Value (L. major [1]; [5]) | Outcome (L. major [2]; [6]) |
| --- | --- | --- | --- | --- |
| O=C(/C=C/c1ccc(-n2ccnc2)cc1)c1c(F)cccc1F [CHEMBL570962] |  |  | 5.51 | Active |
| CCOC(=O)C1=C(C)NC(=O)NC1c1ccccc1 (stereo not shown) [CHEMBL507603] |  |  | 5.42 | Active |
| COc1ccccc1-c1nnc(-c2ccc(C(=O)N/N=C/c3ccc(F)cc3)cc2)o1 [CHEMBL4099059] | 4.85 | Inactive |  |  |
| CCCCN1CN(CC(=O)O)CSC1=S [CHEMBL4283328] | 4.61 | Inactive |  |  |
| COc1ccc(CN2CN(CC(=O)O)CSC2=S)cc1OC [CHEMBL4291183] | 4.81 | Inactive |  |  |
| COc1ccc(/C=N/NC(N)=S)cc1OCc1cn(CC(=O)c2ccc(F)cc2)nn1 [CHEMBL4167146] |  |  | 5.32 | Active |
| O=C(/C=C/c1ccc(-n2ccnc2)cc1)c1ccc(Cl)cc1 [CHEMBL569356] |  |  | 5.53 | Active |
| O=[N+]([O-])c1ccc(-c2c(-c3ccccc3)nc3cnccn23)cc1 [CHEMBL3634352] | 4.56 | Inactive |  |  |
| COc1cc(OC)c2c(C)[n+](-c3ccccc3)c(C)cc2c1.[O-][Cl+3]([O-])([O-])[O-] [CHEMBL3706858] | 4.58 | Inactive |  |  |
| C#CCOc1ccc(/C=N/NC(N)=S)cc1OC [CHEMBL4159578] |  |  | 5.85 | Active |
| Cc1ccc(C(=O)N2CCN(c3ccnc4cc(Cl)ccc34)CC2)cc1 [CHEMBL1256729] | 4.15 | Inactive |  |  |
| COc1cc(OC)c2c(C)[n+](-c3cccc4cc5ccccc5cc34)c(C)cc2c1.O=C([O-])C(F)(F)F [CHEMBL516450] |  |  | 5.73 | Active |
| COc1cc(OC)c2c(C)[n+](-c3ccccc3)c(C)cc2c1.[Cl-] [CHEMBL3706859] | 4.33 | Inactive |  |  |
| COc1ccc(-n2nnc3c(N4CCCC(O)C4)nc(CC4CCCCC4)nc32)cc1 (stereo not shown) [CHEMBL2171512] | 5.07 | Active |  |  |
| O=C(/C=C/C1=Cc2cc(Cl)ccc2OC1)c1ccccc1Cl [CHEMBL1097965] |  |  | 5.91 | Active |
| COc1ccc(/C=N/NC(N)=S)cc1OCc1cn(-c2ccc(S(N)(=O)=O)cc2)nn1 [CHEMBL4165645] |  |  | 5.36 | Active |
| CNc1ccc(Nc2c3ccccc3nc3ccccc23)cc1OC [CHEMBL92157] |  |  | 5.44 | Active |
| Clc1cc(Cl)cc(-c2c(-c3ccccc3)nc3cnccn23)c1 [CHEMBL3634355] | 4.99 | Inactive |  |  |
| Cc1ccc(-c2nc3ccc([N+](=O)[O-])cc3[nH]2)o1 [CHEMBL2295863] |  |  | 5.58 | Active |
| COc1cc(C)cc2c1C(=O)C=C(c1c(C)cc3ccc(O)c(OC)c3c1O)C2=O [CHEMBL2071226] |  |  | 9.74 | Active |
| COc1ccccc1NC(=O)CCC(=O)O [CHEMBL1605594] |  |  | 7.81 | Active |
| COc1ccc(/C=N/NC(=O)c2ccc(-c3nnc(-c4ccccc4OC)o3)cc2)cc1 [CHEMBL4099467] | 4.13 | Inactive |  |  |

| SMILES | pIC50 Value (L. major [1]; [3]) | Outcome (L. major [2]; [4]) | pIC50 Value (L. major [1]; [5]) | Outcome (L. major [2]; [6]) |
| --- | --- | --- | --- | --- |
| COc1cc(C)c(-c2ccc3cc(C)nc(C)c3c2O)c2cccc(O)c12 [CHEMBL222221] | 4.49 | Inactive |  |  |
| Cc1cccc2cc(C3CC(c4ccc(Br)s4)=NN3)c(Cl)nc12 (stereo not shown) [CHEMBL2236133] |  |  | 5.64 | Active |
| Cn1c([N+](=O)[O-])cnc1-c1nnc(N2CCN(C(=O)c3cccc(Cl)c3)CC2)s1 [CHEMBL482665] | 4.75 | Inactive |  |  |
| COc1ccccc1-c1nnc(-c2ccc(C(=O)N/N=C/c3ccccc3O)cc2)o1 [CHEMBL4074817] |  |  | 5.38 | Active |
| N#Cc1ccc(-c2c(-c3ccccc3)nc3ccccn23)cc1 [CHEMBL2151864] | 4.00 | Inactive |  |  |
| CN(C)Cc1ccc(Nc2c3ccccc3nc3ccccc23)cc1 [CHEMBL290441] |  |  | 6.00 | Active |
| Oc1ccc(-c2c(-c3ccccc3)nc3ccccn23)cc1 [CHEMBL2151859] | 4.40 | Inactive |  |  |
| Cn1c([N+](=O)[O-])cnc1-c1nnc(N2CCN(C(=O)c3ccccc3Cl)CC2)s1 [CHEMBL482464] | 4.69 | Inactive |  |  |
| Cc1ccc(/C=C2/C(=O)NN(c3ccc(F)cc3)C2=O)o1 [CHEMBL1256858] | 4.04 | Inactive |  |  |
| O=C(/C=C/c1ccc(-n2ccnc2)cc1)c1ccccc1Cl [CHEMBL569355] |  |  | 5.52 | Active |
| COc1ccccc1-c1nnc(-c2ccc(C(=O)N/N=C/c3ccncc3)cc2)o1 [CHEMBL4080524] | 4.41 | Inactive |  |  |
| CCN(C)c1ccc(Nc2c3ccccc3nc3ccccc23)cc1 [CHEMBL86724] |  |  | 6.00 | Active |
| NP(=O)(OCc1ccc([N+](=O)[O-])cc1Cl)N(CCCl)CCCl (stereo not shown) [CHEMBL1257017] |  |  | 5.51 | Active |
| COc1ccccc1C(=O)N/N=C/c1cc(O)ccc1O [CHEMBL2382047] | 4.46 | Inactive |  |  |
| COc1cc(OC)c2c(C)[n+](-c3ccc(C(C)C)cc3)c(C)cc2c1 [CHEMBL481022] |  |  | 5.70 | Active |
| COCC1=C(C(=O)OC)C(c2cccc([N+](=O)[O-])c2)NC(=O)N1 (stereo not shown) [CHEMBL3786102] |  |  | 5.53 | Active |
| Cc1csc(C2=NNC(c3cc4ccc(C)cc4nc3Cl)C2)c1 (stereo not shown) [CHEMBL2236137] |  |  | 5.59 | Active |
| CC(=O)CCCCCCCCCC[C@H]1CC[C@@H](O)[C@@H](C)N1 [CHEMBL2262843] | 5.27 | Active |  |  |
| CCCC/C=C/C=C/c1nc2cccc(OC)c2n2cccc12 [CHEMBL3260217] | 5.24 | Active |  |  |
| O=[N+]([O-])c1ccc2nc(-c3ccc[nH]3)[nH]c2c1 [CHEMBL2297906] |  |  | 5.40 | Active |
| C[C@@H]([C@H]1CC=C2[C@@H]3CCC4=C[C@@H](N(C)C)CC[C@]4(C)[C@H]3CC[C@@]21C)N(C)C [CHEMBL496488] | 5.17 | Active |  |  |
